The results in this text go back to PubChem BioAssay (NCI).

Several values for one entry are separate records, joined by “and”; a condition that tells them apart may be missing. Equal entries are not always repeated.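 Assay format: 96-well plates, 48-hour exposure. GI50 = concentration required for 50% inhibition of growth. TGI marks complete inhibition of growth.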

What all share (assay): NCI-60 cell line screen, 48 h
Experiment [1] relates to KM12 colon.
Experiment [2] relates to NCI/ADR-RES ovarian.
Experiment [3] has as its system HL-60(TB) leukemia.
The test system of experiment [4] is IGROV1 ovarian.
Experiment [5] deals with UO-31 renal.
Experiment [6] relates to PC-3 prostate.
In experiment [7] the test system is OVCAR-3 ovarian.
Experiment [8] deals with SF-268 CNS.
For experiment [9], the system named is OVCAR-8 ovarian.
In experiment [10] the test system is SR leukemia.

In the case of `O=C(c1ccccc1F)c1c(NCc2ccccc2)c(=O)c1=O`, the TGI in experiment [1], in [2], in experiment [3], in experiment [4], in [5] and in experiment [6] was greater than 100 µM throughout. Further, the TGI in experiment [7], in experiment [8] and in experiment [9] was greater than 100 µM each time.
In the case of `COc1ccccc1C(=O)c1c(N2CCCCC2)c(=O)c1=O`, the TGI in experiment [1], in [2], in experiment [3], in experiment [4], in experiment [5] and in experiment [6] was greater than 100 µM throughout. The TGI in [7], in experiment [8] and in experiment [9] was greater than 100 µM in each case.
In the case of `O=C1c2ccccc2NC2C(O)c3ccccc3N12` (stereo unspecified), the TGI in experiment [1], in experiment [2], in experiment [4], in [5], in [10] and in [6] was greater than 100 µM in each case. Further, the TGI in experiment [7], in experiment [8] and in experiment [9] was greater than 100 µM throughout.
On to `O=c1c(Cc2ccc(Cl)cc2)nnc2sc(-c3ccc([N+](=O)[O-])cc3)nn12`, for which the TGI was greater than 100 µM in [1]; greater than 100 µM in [2]; 49.6 µM in [3]; greater than 100 µM in experiment [4]; greater than 100 µM in experiment [5]; 60.4 µM in experiment [10]. Besides, the values for the TGI in experiment [6], in experiment [8] and in experiment [9] were 47.2 µM, greater than 100 µM and greater than 100 µM, respectively.
Take `CCCCCCCCCCCCOC1C(COCCN2CCCC2)OC2OC(C)(C)OC21` (stereo unspecified): the TGI was found to be 4.37 µM in experiment [2]; 3.1 µM in experiment [4]; 2.96 µM in [5]; 2.91 µM in experiment [10]; 3.16 µM in experiment [6]; 3.05 µM in experiment [7]. For the same compound, the TGI in [8] was found to be 4.44 µM; in [9], 3.03 µM.
For `CC1(C)CC(=O)C(/C=N/c2nc(-c3ccc(Br)cc3)cs2)=C(O)C1`, the TGI in experiment [1] was greater than 100 µM; in [2] it was greater than 100 µM; in experiment [3], greater than 100 µM; in experiment [4] it was greater than 100 µM; in experiment [5], 73.1 µM; in experiment [6], greater than 100 µM. Further, the TGI in experiment [7] was 62.1 µM; in experiment [9], greater than 100 µM.
Turning to `COC(=O)Cc1c(C2=Nc3ccccc3C2(O)CC(=O)OC)[nH]c2ccccc12` (stereo unspecified), the TGI in [1] was greater than 100 µM; in [2] it was greater than 100 µM; in experiment [3] it was 62.7 µM; in experiment [4], greater than 100 µM; in [5], greater than 100 µM; in [6] it was greater than 100 µM. Also, the TGI in experiment [7], in experiment [8] and in experiment [9] was greater than 100 µM in each case.
For `CCCCn1cc(C(=O)O)c(=O)c2c3sccc3ccc21`, the TGI in experiment [1] is greater than 100 µM; in [2] it was 43.4 µM; in experiment [3], greater than 100 µM; in [4], greater than 100 µM; in [5], 50 µM; in experiment [6], greater than 100 µM. The TGI in experiment [7], in experiment [8] and in experiment [9] was greater than 100 µM throughout.
For `O=C1CCC2(CC1)Cc1ccccc1C2O` (stereo unspecified), the TGI in experiment [1], in experiment [2], in [3], in experiment [4], in experiment [5] and in experiment [10] was greater than 100 µM throughout. For the same compound, the TGI in [6], in experiment [8] and in experiment [9] was greater than 100 µM each time.
As for `CCCCCCCCCCCCCCCCOCC(CC(F)(F)P(=O)(O)O)OC(C)=O` (stereo unspecified), the TGI in experiment [1], in [2], in [4], in [5], in experiment [6] and in experiment [7] was greater than 50 µM each time. The compound further displayed a TGI in experiment [8] greater than 50 µM.
As for `C/C(=N\N=C(N)N)c1c(C(=O)OCCCCCCOC(=O)c2nc3sccn3c2/C(C)=N/N=C(N)N)nc2sccn12`, the TGI was greater than 100 µM in experiment [1]; greater than 100 µM in experiment [2]; greater than 100 µM in [3]; greater than 100 µM in experiment [4]; greater than 100 µM in experiment [5]; 41.2 µM in experiment [10]. In addition, the TGI in [6], in experiment [8] and in experiment [9] was greater than 100 µM in each case.
For `C#CC(C)(C)Oc1cc(OC)c2c(=O)c3ccccc3n(C)c2c1`, the TGI in [1] was 37.8 µM; in experiment [2], 83.4 µM; in [3] it was 28.7 µM; in experiment [4], 45 µM; in experiment [5], 22.5 µM; in [10], 14.9 µM. For the same compound, the values for the TGI in experiment [6], in experiment [8] and in [9] were 40.8 µM, 73 µM and 68 µM, respectively.
Regarding `COc1cc2c3c(n(CCCNCCO)c(=O)c2cc1OC)-c1cc2c(cc1C3=O)OCO2`, the GI50 in experiment [1] is 3.16 µM; in [2], 0.295 µM; in experiment [3], less than 0.0277 µM; in experiment [5], 0.0183 µM and 0.181 µM; in experiment [6], 10.2 µM; in experiment [8], less than 0.01 µM. The TGI in experiment [2] was greater than 100 µM; in experiment [4] it was 2.38 µM; in [7], 5.3 µM; in [8], 0.448 µM; in experiment [9], 5.34 µM.
For the compound `O=C1c2ccccc2S(=O)(=O)c2ccccc21`, the TGI in [1], in [2], in experiment [3], in experiment [4], in experiment [5] and in experiment [6] was greater than 100 µM in each case. The TGI in experiment [7], in experiment [8] and in experiment [9] was greater than 100 µM throughout.
Regarding `Oc1ccc(-c2c3c(nc4c2CCc2ccc(Br)cc2-4)-c2cc(Br)ccc2CC3)cc1`, the TGI in experiment [1] is 42.5 µM; in experiment [2] it was 46 µM; in experiment [4], 30.7 µM; in experiment [5], 38.4 µM; in experiment [6] it was 31.9 µM; in experiment [7], 29.5 µM. This compound returned a TGI in experiment [8] of 39.9 µM.
